In publication PMC6112376, “Comprehensive Analyses and Prioritization of Tox21 10K Chemicals Affecting Mitochondrial Function by in-Depth Mechanistic Studies” (Environmental Health Perspectives, 2018):
Like-named read-outs stand apart in the source and are kept apart here.

Columns and labels:
[1] = test system: rat primary hepatocytes; test: MMP assay in rat primary hepatocytes; settings: for IC50: Rattus norvegicus, Hepatocyte, read-out: MMP assays IC50 (µM) Rat Hepatocytes
[2] = test system: HepG2 cells; settings: cited from earlier work
[3] = test system: HepG2 cells; test: cells; settings: Homo sapiens; for IC50: HepG2, read-out: MMP assays IC50 (µM) HepG2; for Emax: HepG2, read-out: MMP assays efficacy (%) HepG2
[4] = test system: rat primary hepatocytes
[5] = read-out: MMP assays IC50 (µM) qHTS-HepG2
[6] = read-out: MMP assays IC50 (µM), qHTS-HepG2

SMILES	MMP assays IC50 (µM) Rat Hepatocytes [1]	MMP assays efficacy (%) qHTS-HepG2 [2] [%]	IC50 [2, 5] [µM]	IC50 [3] [µM]	Emax [3] [%]	MMP assays efficacy (%) Rat Hepatocytes [4]	IC50 [2, 6] [µM]	IC50 [1] [µM]
C/C=C(/C(=C/C)c1ccc(O)cc1)c1ccc(O)cc1 [Dienestrol]	inactive	-98±10	10.9 ± 1.88	8.3	84	inactive		
CS(=O)(=O)c1ccc(C(=O)C2C(=O)CCCC2=O)c([N+](=O)[O-])c1 [Mesotrione]	inactive	-75±17		39.8	72	inactive	18 ± 12	
CCC(C)c1cccc(C(C)CC)c1O (stereo not drawn) [2,6-Di(butan-2-yl)phenol]	inactive	-85±30	13.7 ± 3.19	15.8	110	inactive		
Clc1ccc(C(c2ccc(Cl)cc2)C(Cl)(Cl)Cl)cc1 [p,p'-DDT]	inactive	-99±12		30.8	69	inactive	24.3 ± 2.74	
Cc1ccc2ccc3cccc4ccc1c2c34 [Compound 1-Methylpyrene]		-112±32	43.2 ± 4.99	39.8	112	-57±10%		32.2 ± 7.36
CCCSP(=O)(OCC)Oc1ccc(Br)cc1Cl (stereo not drawn) [Profenofos]		-92±20		6.15	84	-61±47%	2.54 ± 1.84	13.2 ± 3.19
COC1C(O)CC(OC2CC(Oc3cc4cc5c(c(O)c4c(O)c3C)C(=O)[C@@H](OC3CC(OC4CC(OC6CC(C)(O)C(OC(C)=O)C(C)O6)C(O)C(C)O4)C(O)C(C)O3)[C@H]([C@H](OC)C(=O)[C@@H](O)[C@@H](C)O)C5)OC(C)C2OC(C)=O)OC1C (stereo partly drawn) [chromomycin]	inactive	-84±13	12.3 ± 0.84	35.5	44	inactive		
CN1C(=O)[C@@H](NC(=O)c2cc3ccccc3[nH]2)N=C(c2ccccc2)c2ccccc21 [Devazepide]		-81±7	12.5 ± 5.62	10.9	63	-50±14%		15.6 ± 7.19
CN(C)S(=O)(=O)N(SC(F)(Cl)Cl)c1ccccc1 [Dichlofluanid]		-105±5	5.24 ± 1.99	25.1	99	-59±33%		23 ± 29.5
Oc1cccc2ccccc12 [Compound 1-Naphthol]	inactive	-104±5	31 ± 5.96	31.6	107	inactive		
Cc1ccc2c(c1N)C(=O)c1ccccc1C2=O [Compound 1-Amino-2-methylanthraquinone]		-82±1	0.64 ± 0.08	2.51	92	-85±28%		5.28 ± 3.3
Oc1ccccc1-c1ccccc1 [Compound 2-Phenylphenol]		-97±7	17.9 ± 1.41	28.2	108	-75±20%		53.2 ± 4.32
